According to patent US20230348401A1, “Inhibitors of Glucose-6-phosphate Dehydrogenase and Uses Thereof” (The Trustees of Princeton University, priority 2020, published 2023):

Tests used:
active CD8+ T cells = assay: Absolute oxPPP flux by 14CO2 emission; format: cell-based, mouse; conditions: 10 uM
Description: Glucose oxidation flux through oxPPP was determined from difference in the rate of ^14CO2 released from [1-^14C]-glucose and [6-^14C]-glucose, as previously described with some modification. RPMI 1640 media without sodium bicarbonate was supplemented with 0.74 g/L of NaHCO3, 2.5 mM HEPES pH 7.4, 10% dFBS, and 1% of either 1-^14C-glucose or 6-^14C-glucose. Three million primary mouse naïve (rested in IL-7) or active CD8+ T cells (in the presence of IL2 and 0.1% DMSO or 10 uM G6PDi-1) were incubated for 4 hours in a sealed 12.5 cm^2 flask. To facilitate the collection of ^14CO2, 100 µL of a 10 M KOH solution was introduced into the sealed flask using a center well for incubation flask (8823200000, DWK Life Sciences). The assay was stopped by injection of 1 mL 1 M HCL, and the KOH solution then transferred to scintillation vials containing 10 mL scintillation solution for counting. The signal was corrected for the percentage of radioactive tracer in the medium. OxPPP flux is calculated as follows: […]

colony formation = assay: Colony formation; format: cell-based; conditions: dose-response; rescued by exogenous antioxidants
G6PD [1] = target: T1, G6PD (Homo sapiens, UniProt P11413); assay: Cellular thermal shift assay (CETSA) in HepG2 lysates; format: binding; set-up: endogenous in cells; conditions: up to 56° C.
T1 sequence (P11413 whole entry): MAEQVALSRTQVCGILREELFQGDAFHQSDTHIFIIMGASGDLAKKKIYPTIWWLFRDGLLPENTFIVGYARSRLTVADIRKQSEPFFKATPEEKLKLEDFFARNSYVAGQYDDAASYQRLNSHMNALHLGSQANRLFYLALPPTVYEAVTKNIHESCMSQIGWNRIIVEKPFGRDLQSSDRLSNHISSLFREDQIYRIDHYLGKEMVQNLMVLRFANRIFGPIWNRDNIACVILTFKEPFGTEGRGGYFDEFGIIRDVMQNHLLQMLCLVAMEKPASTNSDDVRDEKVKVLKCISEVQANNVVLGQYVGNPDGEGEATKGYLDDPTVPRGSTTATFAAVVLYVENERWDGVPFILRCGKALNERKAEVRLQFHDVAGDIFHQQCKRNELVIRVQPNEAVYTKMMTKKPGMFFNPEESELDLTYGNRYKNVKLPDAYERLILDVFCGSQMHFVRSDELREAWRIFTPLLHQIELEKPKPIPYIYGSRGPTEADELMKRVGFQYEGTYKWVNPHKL
Description: Lysates from HepG2 cells at 75% confluence were isolated with 0.5% Triton in TBS (20 mM, Tris pH 7.4, 150 mM NaCl) for 30 min on ice, pre-cleared by centrifugation and used for thermal shift assay as described 49. Briefly, inhibitor or DMSO control was added to lysates at indicated concentration and incubated for 30 min on ice followed by 3 min heating at 47° C., 50° C., 53° C., and 56° C. in a thermal cycler. After heating, tubes were cooled at room temperature for 3 min and insoluble fraction removed by centrifugation at 17,000 g for 20 min. The soluble fraction was separated by SDS-PAGE, transferred to PVDF membrane, and immunoblotted using indicated antibodies at a dilution of 1:2000. Blots were developed by chemiluminescence and imaged using LI-COR C-DiGit Western Blot Scanner. Two independent experiments were performed. Signal intensity of proteins from immunoblots was quantified using Image Studio version 5.2 for C-DiGit Scanner, and bands were normalized to signal intensity of the 47° C. treated samples. Relative signal intensities were plotted as bar graph relative to the DMSO treated control.

RBCs = assay: NADPH pools in red blood cells; format: cell-based, mouse
Description: To isolate red blood cells, mice were euthanized by cervical dislocation followed by collection of approximately 200 µL whole blood via cardiac puncture into tubes containing 7.5 µL heparin (1000USP/mL, H3393, Sigma Aldrich). The cells were incubated on ice for approximately 5 minutes, then centrifuged (5 minutes, 500 rpm, 4° C.) followed by aspiration of the serum and buffy coat layer. Cells were gently resuspended in PBS and then pelleted (5 minutes, 500 rpm, 4° C.) three times. Cells were then resuspended in RPMI media and used immediately for experiments.
For suspension cells (including T cells and red blood cells), 2×10^6 cells were seeded in 1 mL of media in 12-well plates and incubated with appropriate media, which included isotope tracers and/or chemical inhibitors and/or cytokines, as described. For all experiments involving small molecule agents, DMSO concentrations were <0.2%. After 2 hours, cell suspensions were transferred to 1.5 mL tubes and pelleted (30 seconds, 6000 rpm, room temperature). Media was removed by aspiration and metabolome extraction was performed by the addition of 75 µL of ice cold solvent (40:40:20 ACN:MeOH:H2O + 0.5%FA). After a 5-minute incubation on ice, acid was neutralized by the addition of NH4HCO3. […]

G6PD [2] = target: T1, G6PD; assay: 6-pg levels in HepG2 cells (cellular target engagement); format: cell-based; set-up: endogenous in cells; conditions: HepG2 cells; read-out: IC50, decrease in 6-pg levels
Source text: Direct Monitoring of 6-pg in cells. The metabolite 6-phosphogluconate (6-pg) is a downstream product of the G6PD reaction, and is believed to be made predominantly by the oxidative pentose phosphate pathway in mammalian cells. Though the direct product of G6PD is the lactone form of 6-pg (6-phosphogluconolactone), this product is believed to readily hydrolyze to 6-pg under cellular conditions, and is therefore difficult to detect. Thus, to directly monitor the G6PD reaction, methods for measuring 6-pg levels in intact cells were developed.
To explore this possibility further, more specific assays for evaluating G6PD cellular target engagement were developed. […] These included the hepatocellular carcinoma line, HepG2, which was selected as the primary cell for direct 6-pg monitoring. Consistent with the oxPPP being the primary source of 6-pg in these cells, G6PD knockout led to nearly complete 6-pg loss (FIGS. 1B and 1C).
For analysis of intracellular metabolites by LC-MS, adherent cell lines were plated and grown to 80% confluency in 6-well plates. At the start of an experiment, the appropriate media was added to cells, which included isotope tracers and/or chemical inhibitors as described. Cells were incubated at 37° C. at 5% CO2 for 2 hours (unless otherwise noted). For all experiments involving small molecule agents, DMSO concentrations were <0.2%. After 2 hours, media was removed by aspiration and metabolome extraction was performed (without any wash steps) by the addition of 800 µL of ice cold solvent (40:40:20 acetonitrile:methanol:water + 0.5% formic acid). After a 1-minute incubation on ice, the extract was neutralized by the addition of NH4HCO3 (15% w/v). The samples were incubated at -20° C. for approximately 30 minutes, at which point the wells were scraped and the extract transferred to Eppendorf tubes and centrifuged (15 minutes, 16000 rpm, 4° C.). The resulting supernatant was frozen on dry ice and kept at -80° C. until LC-MS analysis.
Metabolites were analyzed using a quadrupole-orbitrap mass spectrometer (Q Exactive Plus, Thermo Fisher Scientific, Waltham, MA), coupled to hydrophilic interaction chromatography (HILIC) with LC separation on a XBridge BEH Amide column (Waters), or a stand-alone orbitrap (Thermo-Fisher Exactive) coupled to reversed-phase ion-pairing chromatography with LC separation on a HSS-T3 column (Waters). Both mass spectrometers were operating in negative ion mode and were coupled to their respective liquid chromatography methods via electrospray-ionization. Detailed analytical conditions have been previously described.

## N#Cc1cc(Nc2ncc3c(n2)CCCCC3=O)cs1 [Compound 2, 4-([5-oxo-6H,7H,8H,9H-cyclohepta[d]pyrimidin-2-yl]amino)thiophene-2-carbonitrile]
Active CD8+ T cells
  absolute oxPPP flux: blocked
Colony formation
  colony formation: dose-dependent decrease
G6PD [1]
  thermal stabilization of G6PD: significant thermal stabilization of G6PD
RBCs
  sensitivity of NADPH pools: fairly sensitive
G6PD [2]
  IC50: ~13 µM
